According to ChEMBL document CHEMBL1201862, “PubChem BioAssay data set” (2004):
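Five compound concentrations were applied to cells in 96-well plates for 48 hours; endpoints were derived by simple linear interpolation of the resulting dose-response curve. GI50: concentration for 50% inhibition of growth.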 Activity calls are given as the source filed them. No stated cut-off is given here; in the data, active = GI50 up to about 1.1 µM and inactive = higher.

What was measured:
Test in all cases: NCI tumour cell line growth inhibition, 48 h
NCI-H522 = tested on: NCI-H522
U-251 = tested on: U-251
K562 = tested on: K562
SNB-75 = tested on: SNB-75
COLO 205 = tested on: COLO 205
CAKI-1 = tested on: CAKI-1
SK-MEL-5 = tested on: SK-MEL-5
CCRF-CEM = tested on: CCRF-CEM
KM12 = tested on: KM12
HT-29 = tested on: HT-29
UO-31 = tested on: UO-31
OVCAR-8 = tested on: OVCAR-8
SK-OV-3 = tested on: SK-OV-3
SW-620 = tested on: SW-620
OVCAR-3 = tested on: OVCAR-3
HL-60 = tested on: HL-60
SNB-19 = tested on: SNB-19
A549 = tested on: A549
LOX IMVI = tested on: LOX IMVI
SR = tested on: SR

Structure (SMILES)	GI50 (NCI-H522)	GI50 (U-251)	GI50 (K562)	GI50 (SNB-75)	GI50 (COLO 205)	GI50 (CAKI-1)	GI50 (SK-MEL-5)	GI50 (CCRF-CEM)	GI50 (KM12)	GI50 (HT-29)	GI50 (UO-31)	GI50 (OVCAR-8)	GI50 (SK-OV-3)	GI50 (SW-620)	GI50 (OVCAR-3)	GI50 (HL-60)	GI50 (SNB-19)	GI50 (A549)	GI50 (LOX IMVI)	GI50 (SR)
O=C1/C(=C/c2ccc(Cl)cc2)N=C(c2ccccc2)N1/N=C/c1ccccc1O	13.4 µM (inactive)	5.27 µM (inactive)	9.12 µM (inactive)	6.31 µM (inactive)	16.3 µM (inactive)	7.6 µM (inactive)	15.1 µM (inactive)	2.11 µM (inactive)	12.9 µM (inactive)	21.1 µM (inactive)	11.6 µM (inactive)	5.51 µM (inactive)	5.61 µM (inactive)	> 100 µM (inactive)	9.1 µM (inactive)	28.1 µM (inactive)	> 100 µM (inactive)	19.2 µM (inactive)	13.2 µM (inactive)	–
C/C(=C1\C(=O)C(c2ccccc2)N(c2ccccc2)C1=O)c1ccc(Cl)cc1 (stereo not drawn)	18.2 µM (inactive)	15.9 µM (inactive)	30.1 µM (inactive)	–	16.8 µM (inactive)	24.4 µM (inactive)	14.5 µM (inactive)	–	22.2 µM (inactive)	17.4 µM (inactive)	19.8 µM (inactive)	–	16.7 µM (inactive)	22.8 µM (inactive)	15.6 µM (inactive)	28.6 µM (inactive)	17.4 µM (inactive)	18.2 µM (inactive)	14.9 µM (inactive)	20.6 µM (inactive)
COC1/C=C\C=C(/C)C(=O)NC2=CC(=O)C=C(C2=O)C(OC)C(C)CC(OC)C(OC)C(C)/C=C(/C)C1OC(N)=O (stereo not drawn)	0.231 µM (active)	12.7 µM (inactive)	0.15 µM (active)	17.3 µM (inactive)	0.084 µM (active)	12.2 µM (inactive)	4.35 µM (inactive)	0.278 µM (active)	5.7 µM (inactive)	0.608 µM (active)	16.4 µM (inactive)	1.65 µM (inactive)	14.6 µM (inactive)	0.146 µM (active)	1.49 µM (inactive)	0.132 µM (active)	14.1 µM (inactive)	16.7 µM (inactive)	3.19 µM (inactive)	–
CCCSCC(P(=O)(O)O)P(=O)(O)O.NC1CCCCC1	> 100 µM (inactive)	> 100 µM (inactive)	> 100 µM (inactive)	> 100 µM (inactive)	> 100 µM (inactive)	> 100 µM (inactive)	> 100 µM (inactive)	> 100 µM (inactive)	7.46 µM (inactive)	> 100 µM (inactive)	> 100 µM (inactive)	> 100 µM (inactive)	> 100 µM (inactive)	> 100 µM (inactive)	55.7 µM (inactive)	> 100 µM (inactive)	> 100 µM (inactive)	> 100 µM (inactive)	> 100 µM (inactive)	–
CCOC(=O)C(CC(C)C)NC(=O)C(Cc1ccc(N(CCCl)CCCl)cc1)NC(C)=O (stereo not drawn)	1.57 µM (inactive)	7.91 µM (inactive)	4.81 µM (inactive)	5.96 µM (inactive)	3.7 µM (inactive)	1.29 µM (inactive)	3.3 µM (inactive)	0.621 µM (active)	20.7 µM (inactive)	11.7 µM (inactive)	8.02 µM (inactive)	8.63 µM (inactive)	15.8 µM (inactive)	7.73 µM (inactive)	4.56 µM (inactive)	0.426 µM (active)	14 µM (inactive)	13.4 µM (inactive)	2.68 µM (inactive)	–
CO/C=C(/C(=O)OC)[C@@H]1C[C@@H]1c1ccc2ccccc2c1	12 µM (inactive)	27.4 µM (inactive)	23 µM (inactive)	–	18.3 µM (inactive)	21.6 µM (inactive)	16.4 µM (inactive)	27.6 µM (inactive)	21.7 µM (inactive)	19.1 µM (inactive)	30.3 µM (inactive)	34 µM (inactive)	22.2 µM (inactive)	–	24.6 µM (inactive)	18.3 µM (inactive)	56.5 µM (inactive)	18.7 µM (inactive)	–	13.2 µM (inactive)
COC(=O)Nc1nc2ccc(S(=O)(=O)SC)cc2[nH]1	4.33 µM (inactive)	5.51 µM (inactive)	4.86 µM (inactive)	–	4.28 µM (inactive)	4.88 µM (inactive)	5.28 µM (inactive)	3.52 µM (inactive)	5.45 µM (inactive)	3.28 µM (inactive)	–	5.13 µM (inactive)	8.39 µM (inactive)	3.73 µM (inactive)	4.86 µM (inactive)	2.38 µM (inactive)	7.55 µM (inactive)	8.11 µM (inactive)	4.78 µM (inactive)	3.72 µM (inactive)
